Measured values published in patent US20030220396A1, “Method for treating ocular hypertension and glaucoma” (SUCAMPO AG, priority 2002, published 2003).

Legend:
Format in all cases: in vivo
[1] = tested on: intraocular pressure (IOP); test: IOP lowering after instillation of ophthalmic solution in cynomolgus monkeys (Example 1); conditions: for ΔIOP · AUC0-24 h Mean ± S.E.: 0.001 w/v% solution, 30 μL/eye
Procedure: (§1) In the following examples, the osmolarity was measured by means of OSMOMETER (Model OM-801, VOGEL) at room temperature.
Two kinds of test ophthalmic solutions each containing 0.001 w/v% of test substance 1 (13,14-dihydro-15-keto-17-phenyl-18,19,20-trinor-PGF2αisopropyl ester), which is 15-keto-prostaglandin compound having a ring structure at the end of the ω chain were prepared. The osmolarity ratio of one solution was adjusted to 0.7 (osmolarity: 200 mOsm) and the other was adjusted to 1.0 (osmolarity: 286 mOsm). Nine cynomolgus monkeys were used for the example. One of the test solutions was instilled (30 μL/eye) into one eye of the monkey, and one week after, the other test solution was instilled (30 μL/eye) into the same eye.

[2] = tested on: intraocular pressure (IOP); test: IOP lowering after instillation of ophthalmic solution in cynomolgus monkeys (Example 2); conditions: for ΔIOP · AUC0-24 h Mean ± S.E.: 0.001 w/v% solution, 30 μL/eye, in mmHg·h (unit assumed)
Procedure: as §1
Three kinds of ophthalmic solutions each containing 0.001 w/v% of test substance 1 were prepared and used. The osmolarity ratio of the solutions were adjusted to 0.8 (osmolarity: 229 mOsm), 1.0 (osmolarity: 286 mOsm) and 1.3 (osmolarity: 372 mOsm) respectively. Eight cynomolgus monkeys were used for this example. Test solutions were instilled to the monkey in the same manner as Example 1, i.e. 30 μL/eye of each solution was serially instilled to same eye with one-week intervals between the instillations.

[3] = tested on: intraocular pressure (IOP); test: IOP lowering after instillation of ophthalmic solution in white rabbit (Comparative Example); conditions: for ΔIOP · AUC0-6 h Mean ± S.E.: 0.05 w/v% solution, 35 μL/eye, in mmHg·h (unit assumed)
Procedure: as §1
Three kinds of ophthalmic solutions each containing 0.05 w/v% of test substance 2 (13,14-dihydro-15-keto-20-ethyl-PGF2αisopropyl ester), which is a 15-keto-prostaglandin compound having a linear structure at the end of the ω chain, were prepared and used. The osmolarity ratio of the solutions were adjusted to 0.3 (osmolarity: 86 mOsm), 0.7 (osmolarity: 200 mOsm) and 1.0 (osmolarity: 286 mOsm), respectively. Each of the test solutions (35 μL/eye) was instilled serially into one eye of a white rabbit with one-week intervals between the installations.

[4] = osmolarity ratio 1.0 (286 mOsm)

Structure (SMILES) | ΔIOP · AUC0-24 h Mean ± S.E. ([1]; osmolarity ratio 0.7 (200 mOsm), in mmHg·h (unit assumed)) | ΔIOP · AUC0-24 h Mean ± S.E. ([1]; osmolarity ratio 1.0 (286 mOsm), p < 0.05 vs ratio 0.7, in mmHg·h (unit assumed)) | IOP lowering effect, comparison in words ([1]; osmolarity ratio 1.0 compared with osmolarity ratio 0.7, 0.001 w/v%) | ΔIOP · AUC0-24 h Mean ± S.E. ([2]; osmolarity ratio 0.8 (229 mOsm)) | ΔIOP · AUC0-24 h Mean ± S.E. [2, 4] | ΔIOP · AUC0-24 h Mean ± S.E. ([2]; osmolarity ratio 1.3 (372 mOsm)) | IOP lowering effect, comparison in words ([2]; osmolarity ratio 1.0 compared with osmolarity ratio 0.8 and 1.3, 0.001 w/v%) | ΔIOP · AUC0-6 h Mean ± S.E. ([3]; osmolarity ratio 0.3 (86 mOsm)) | ΔIOP · AUC0-6 h Mean ± S.E. ([3]; osmolarity ratio 0.7 (200 mOsm)) | ΔIOP · AUC0-6 h Mean ± S.E. [3, 4] | IOP lowering effect, comparison in words ([3]; osmolarity ratio 0.3, 0.7 and 1.0 compared, 0.05 w/v%)
CC(C)OC(=O)CCC/C=C\C[C@@H]1[C@@H](CCC(=O)CCc2ccccc2)[C@H](O)C[C@@H]1O [Test Substance 1, 13,14-dihydro-15-keto-17-phenyl-18,19,20-trinor-PGF2αisopropyl ester] | 22.8 ± 11.8 | 55.1 ± 10.7 | significantly greater IOP lowering effect | 41.1 ± 18.7 | 62.3 ± 19.3 | 37.9 ± 14.8 | greater IOP lowering effect |  |  |  | 
CCCCCCCC(=O)CC[C@@H]1[C@@H](C/C=C\CCCC(=O)OC(C)C)[C@@H](O)C[C@H]1O [Test Substance 2, 13,14-dihydro-15-keto-20-ethyl-PGF2αisopropyl ester] |  |  |  |  |  |  |  | 18.9 ± 4.4 | 22.5 ± 5.1 | 20.3 ± 4.6 | substantially the same IOP lowering effect
